Experimental data reported in patent publication US20120308623A1, “COMPOSITION COMPRISING NANOPARTICLES OF TI02” (priority 2009, published 2012).

Legend:
[1] = Methylene blue degradation measured by UV-vis spectrophotometry; details: Example 1: H2O2 at 15 vol. %, TiO2 at various concentrations, no UV irradiation, measured every 3 minutes for one hour
From the text: Methylene blue (MB) is a heterocyclic aromatic chemical compound with molecular formula: C16H18N3SCl (AldrichSigmaAldrich, Oslo, Norway). It has many uses in a range of different fields, such as biology and chemistry. […] A degradadation of MB therefore can be used as a model for the in vivo degradation of organic material, such as bacteria, or dead, damaged, and/or infected tissue. At room temperature it appears as a solid, odourless, dark green powder that yields a blue solution when dissolved in water. When degradated in solution, methylene blue becomes colourless. When methylene blue is analysed by UV-vis spectrophotometry (Lambda 25, Perkin Elmer, USA), it absorbs light at […]. This machine was used to quantify the degradation of MB.
The aim was to measure if methylene blue could be degradated by H2O2 (PERDROGEN® 30% H2O2 (w/w), Sigma Aldrich AS, Oslo, Norway) at 15% only, without TiO2 or UV irradiation. Then, an increasing concentration of TiO2 (Aeroxide P25, Evonik AG, Essen, Germany) was added to the solution until a maximum concentration of 8 g/L. The measurements were taken every 3 minutes for one hour. The pH of the suspension containing MB was also registered. The suspension was stirred prior to each measurement to prevent the deposition of the TiO2 particles. […]

[2] = pH of the suspension containing MB; format: physicochemical; details: Example 1: H2O2 at 15 vol. %, without or with TiO2
Description: The aim was to measure if methylene blue could be degradated by H2O2 (PERDROGEN® 30% H2O2 (w/w), Sigma Aldrich AS, Oslo, Norway) at 15% only, without TiO2 or UV irradiation. Then, an increasing concentration of TiO2 (Aeroxide P25, Evonik AG, Essen, Germany) was added to the solution until a maximum concentration of 8 g/L. The measurements were taken every 3 minutes for one hour. The pH of the suspension containing MB was also registered. The suspension was stirred prior to each measurement to prevent the deposition of the TiO2 particles.
The aim was to measure if methylene blue could be degradated by TiO2 nanoparticles only (Aeroxide P25, Evonik AG, Essen, Germany), without H2O2 or UV irradiation. Then, an increasing concentration of H2O2 (PERDROGEN® 30% H2O2 (w/w), Sigma Aldrich AS, Oslo, Norway) was added to the suspension until a maximum concentration of 15 vol. %. The procedure of the experiment was the same as explained in example 1.

OO [H2O2 at 15 vol. %, H2O2]
Methylene blue degradation [1]: Almost no degradation
pH of the suspension containing MB [2]: 3.7
